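Where inhibition never reached the appropriate level, the endpoint shown equals the highest concentration tested. Otherwise, values were interpolated linearly from a five-concentration, 48-hour dose response in 96-well plates. GI50: concentration for 50% inhibition of growth.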 The source made the active and inactive calls. Rule as the data show it: active = GI50 up to about 1.1 µM and inactive = higher.
Key:
Assay in all cases: NCI tumour cell line growth inhibition, 48 h
CCRF-CEM = system: CCRF-CEM
NCI-H226 = system: NCI-H226
SF-295 = system: SF-295
SW-620 = system: SW-620
RXF 393 = system: RXF 393
SNB-75 = system: SNB-75
KM-20L2 = system: KM-20L2
HT-29 = system: HT-29
Malme-3M = system: Malme-3M
SN12C = system: SN12C
UACC-62 = system: UACC-62
HOP-92 = system: HOP-92
A498 = system: A498
OVCAR-5 = system: OVCAR-5
XF498 = system: XF498
HOP-62 = system: HOP-62
OVCAR-3 = system: OVCAR-3
OVCAR-8 = system: OVCAR-8
COLO 205 = system: COLO 205
SNB-19 = system: SNB-19
MOLT-4 = system: MOLT-4
LXFL 529 = system: LXFL 529
HCT-116 = system: HCT-116
DMS-273 = system: DMS-273
EKVX = system: EKVX
SK-MEL-28 = system: SK-MEL-28
M14 = system: M14
CAKI-1 = system: CAKI-1
ACHN = system: ACHN
A549 = system: A549
SF-539 = system: SF-539
NCI-H522 = system: NCI-H522
M19-MEL = system: M19-MEL
DMS-114 = system: DMS-114
U-251 = system: U-251
HCT-15 = system: HCT-15
SF-268 = system: SF-268
786-0 = system: 786-0
SK-MEL-2 = system: SK-MEL-2
DLD-1 = system: DLD-1
TK-10 = system: TK-10
IGROV-1 = system: IGROV-1
HL-60 = system: HL-60
SK-OV-3 = system: SK-OV-3
RPMI-8226 = system: RPMI-8226
KM12 = system: KM12
LOX IMVI = system: LOX IMVI
HOP-18 = system: HOP-18
OVCAR-4 = system: OVCAR-4
NCI-H23 = system: NCI-H23
SK-MEL-5 = system: SK-MEL-5
HCC 2998 = system: HCC 2998
K562 = system: K562
NCI-H460 = system: NCI-H460
UACC-257 = system: UACC-257
SNB-78 = system: SNB-78
UO-31 = system: UO-31
SR = system: SR

SMILES: Cc1ccc2c(CC(=O)O)cc(=O)oc2c1
- GI50 (CCRF-CEM): > 100 µM (inactive)
- GI50 (NCI-H226): > 100 µM (inactive)
- GI50 (SF-295): > 100 µM (inactive)
- GI50 (SW-620): > 100 µM (inactive)
- GI50 (RXF 393): 3.72 µM (inactive)
- GI50 (SNB-75): 44.9 µM (inactive)
- GI50 (KM-20L2): > 100 µM (inactive)
- GI50 (HT-29): > 100 µM (inactive)
- GI50 (Malme-3M): > 100 µM (inactive)
- GI50 (SN12C): > 100 µM (inactive)
- GI50 (UACC-62): > 100 µM (inactive)
- GI50 (HOP-92): > 100 µM (inactive)
- GI50 (A498): > 100 µM (inactive)
- GI50 (OVCAR-5): > 100 µM (inactive)
- GI50 (XF498): 2.86 µM (inactive)
- GI50 (HOP-62): > 100 µM (inactive)
- GI50 (OVCAR-3): > 100 µM (inactive)
- GI50 (OVCAR-8): > 100 µM (inactive)
- GI50 (COLO 205): > 100 µM (inactive)
- GI50 (SNB-19): > 100 µM (inactive)
- GI50 (MOLT-4): > 100 µM (inactive)
- GI50 (LXFL 529): > 100 µM (inactive)
- GI50 (HCT-116): > 100 µM (inactive)
- GI50 (DMS-273): 37.2 µM (inactive)
- GI50 (EKVX): > 100 µM (inactive)
- GI50 (SK-MEL-28): > 100 µM (inactive)
- GI50 (M14): > 100 µM (inactive)
- GI50 (CAKI-1): > 100 µM (inactive)
- GI50 (ACHN): > 100 µM (inactive)
- GI50 (A549): > 100 µM (inactive)
- GI50 (SF-539): > 100 µM (inactive)
- GI50 (NCI-H522): > 100 µM (inactive)
- GI50 (M19-MEL): > 100 µM (inactive)
- GI50 (DMS-114): > 100 µM (inactive)
- GI50 (U-251): > 100 µM (inactive)
- GI50 (HCT-15): > 100 µM
- GI50 (SF-268): > 100 µM (inactive)
- GI50 (786-0): > 100 µM (inactive)
- GI50 (SK-MEL-2): > 100 µM (inactive)
- GI50 (DLD-1): > 100 µM (inactive)
- GI50 (TK-10): > 100 µM (inactive)
- GI50 (IGROV-1): > 100 µM (inactive)
- GI50 (HL-60): > 100 µM (inactive)
- GI50 (SK-OV-3): > 100 µM (inactive)
- GI50 (RPMI-8226): > 100 µM (inactive)
- GI50 (KM12): > 100 µM (inactive)
- GI50 (LOX IMVI): > 100 µM (inactive)
- GI50 (HOP-18): > 100 µM (inactive)
- GI50 (OVCAR-4): > 100 µM (inactive)
- GI50 (NCI-H23): > 100 µM (inactive)
- GI50 (SK-MEL-5): > 100 µM (inactive)
- GI50 (HCC 2998): > 100 µM (inactive)
- GI50 (K562): > 100 µM (inactive)
- GI50 (NCI-H460): > 100 µM (inactive)

SMILES: OC(c1ccccc1)(c1ccccc1)c1cccnc1
- GI50 (CCRF-CEM): > 100 µM (inactive)
- GI50 (NCI-H226): > 100 µM (inactive)
- GI50 (SF-295): > 100 µM (inactive)
- GI50 (SW-620): > 100 µM (inactive)
- GI50 (SNB-75): 86.1 µM (inactive)
- GI50 (KM-20L2): > 100 µM (inactive)
- GI50 (HT-29): > 100 µM (inactive)
- GI50 (Malme-3M): > 100 µM (inactive)
- GI50 (SN12C): > 100 µM (inactive)
- GI50 (UACC-62): > 100 µM (inactive)
- GI50 (A498): > 100 µM (inactive)
- GI50 (OVCAR-5): > 100 µM (inactive)
- GI50 (XF498): > 100 µM (inactive)
- GI50 (HOP-62): > 100 µM (inactive)
- GI50 (OVCAR-3): > 100 µM (inactive)
- GI50 (OVCAR-8): > 100 µM (inactive)
- GI50 (COLO 205): > 100 µM (inactive)
- GI50 (SNB-19): > 100 µM (inactive)
- GI50 (UACC-257): > 100 µM (inactive)
- GI50 (HCT-116): > 100 µM (inactive)
- GI50 (SNB-78): > 100 µM (inactive)
- GI50 (DMS-273): > 100 µM (inactive)
- GI50 (EKVX): > 100 µM (inactive)
- GI50 (SK-MEL-28): > 100 µM (inactive)
- GI50 (M14): > 100 µM (inactive)
- GI50 (CAKI-1): > 100 µM (inactive)
- GI50 (UO-31): > 100 µM (inactive)
- GI50 (ACHN): > 100 µM (inactive)
- GI50 (A549): > 100 µM (inactive)
- GI50 (SF-539): > 100 µM (inactive)
- GI50 (M19-MEL): > 100 µM (inactive)
- GI50 (DMS-114): > 100 µM (inactive)
- GI50 (U-251): > 100 µM (inactive)
- GI50 (HCT-15): > 100 µM
- GI50 (SF-268): > 100 µM (inactive)
- GI50 (786-0): > 100 µM (inactive)
- GI50 (SK-MEL-2): > 100 µM (inactive)
- GI50 (DLD-1): > 100 µM (inactive)
- GI50 (TK-10): > 100 µM (inactive)
- GI50 (IGROV-1): > 100 µM (inactive)
- GI50 (SK-OV-3): > 100 µM (inactive)
- GI50 (RPMI-8226): > 100 µM (inactive)
- GI50 (KM12): > 100 µM (inactive)
- GI50 (LOX IMVI): > 100 µM (inactive)
- GI50 (HOP-18): > 100 µM (inactive)
- GI50 (OVCAR-4): > 100 µM (inactive)
- GI50 (NCI-H23): > 100 µM (inactive)
- GI50 (SK-MEL-5): > 100 µM (inactive)
- GI50 (HCC 2998): > 100 µM (inactive)
- GI50 (K562): > 100 µM (inactive)
- GI50 (NCI-H460): > 100 µM (inactive)

SMILES: CCOC(=O)c1nc2ccc(Cl)cc2c2c1Cc1ccccc1-2
- GI50 (NCI-H226): > 100 µM (inactive)
- GI50 (SF-295): > 100 µM (inactive)
- GI50 (SW-620): > 100 µM (inactive)
- GI50 (RXF 393): 19.7 µM (inactive)
- GI50 (SNB-75): 70 µM (inactive)
- GI50 (KM-20L2): > 100 µM (inactive)
- GI50 (SN12C): > 100 µM (inactive)
- GI50 (UACC-62): > 100 µM (inactive)
- GI50 (OVCAR-5): > 100 µM (inactive)
- GI50 (XF498): > 100 µM (inactive)
- GI50 (HOP-62): > 100 µM (inactive)
- GI50 (OVCAR-3): > 100 µM (inactive)
- GI50 (OVCAR-8): > 100 µM (inactive)
- GI50 (COLO 205): > 100 µM (inactive)
- GI50 (SNB-19): > 100 µM (inactive)
- GI50 (MOLT-4): > 100 µM (inactive)
- GI50 (UACC-257): 75.3 µM (inactive)
- GI50 (LXFL 529): > 100 µM (inactive)
- GI50 (SR): > 100 µM (inactive)
- GI50 (HCT-116): > 100 µM (inactive)
- GI50 (SNB-78): > 100 µM (inactive)
- GI50 (DMS-273): > 100 µM (inactive)
- GI50 (EKVX): > 100 µM (inactive)
- GI50 (SK-MEL-28): > 100 µM (inactive)
- GI50 (M14): > 100 µM (inactive)
- GI50 (CAKI-1): > 100 µM (inactive)
- GI50 (UO-31): > 100 µM (inactive)
- GI50 (ACHN): > 100 µM (inactive)
- GI50 (A549): > 100 µM (inactive)
- GI50 (SF-539): > 100 µM (inactive)
- GI50 (NCI-H522): 90.8 µM (inactive)
- GI50 (M19-MEL): > 100 µM (inactive)
- GI50 (U-251): > 100 µM (inactive)
- GI50 (HCT-15): > 100 µM
- GI50 (SF-268): > 100 µM (inactive)
- GI50 (786-0): > 100 µM (inactive)
- GI50 (SK-MEL-2): > 100 µM (inactive)
- GI50 (DLD-1): > 100 µM (inactive)
- GI50 (TK-10): > 100 µM (inactive)
- GI50 (IGROV-1): > 100 µM (inactive)
- GI50 (RPMI-8226): > 100 µM (inactive)
- GI50 (KM12): > 100 µM (inactive)
- GI50 (LOX IMVI): > 100 µM (inactive)
- GI50 (HOP-18): > 100 µM (inactive)
- GI50 (OVCAR-4): > 100 µM (inactive)
- GI50 (NCI-H23): > 100 µM (inactive)
- GI50 (SK-MEL-5): > 100 µM (inactive)
- GI50 (HCC 2998): > 100 µM (inactive)
- GI50 (K562): > 100 µM (inactive)

From ChEMBL document CHEMBL1201862, “PubChem BioAssay data set” (2004)
